# Laboratory results published in patent US5410031A, “Nucleoside cotransporter protein cDNA” (The Regents of the University of California Office of …, priority 1992, dated 1995).
# Legend:
# [1] = tested on: SNST1c (chimeric Na+/nucleoside cotransporter SNST1); assay: Uptake of radiolabelled substrates in Xenopus oocytes expressing SNST1c; type: cell-based, rabbit; settings: for transport of radiolabelled substrate by SNST1c: Xenopus oocytes injected with SNST1c RNA
# Description: (§1) Oocyte injections. Xenopus oocytes were dissected and injected, and transport was measured as described below. Stage V and VI oocytes (Dumont, J. Morphol. 136:153-180 (1972)) from Xenopus laevis (Xenopus One, Ann Arbor, Mich.) were dissected and defolliculated as described by Hediger et al., Proc. Natl. Acad. Sci. USA 84:2634-2637 (1987) and Coady et al., Arch. Biochem. Biophys. 265:73-81 (1990), both of which are incorporated by reference herein. Briefly, oocytes were hand-dissected from ovarian tissue of adult female Xenopus laevis. Individual oocytes were obtained by gentle agitation in Barth's solution (Silbernagl, Physiol. Rev. 68:912-1007 (1988)) 1.0% collagenase (to remove follicular cells) and 0.1% trypsin inhibitor for 60 min followed by a 30 to 60 min incubation in 100 mM K2 HP04, pH 6.5, 0.1% BSA (modified from Dumont, J. Morphol. 136:153-179 (1972)). Oocytes were maintained in Barth's solution at 18° C. After 16 to 24 hr, the healthy oocytes were injected with 50 nl of water or mRNA (0.2 to 1 mg/ml) and incubated in Barth's solution with gentamicin at 18° C. for another 3 to 8 days.
# (§2) Na^+ /nucleoside transporter activity was assayed by measuring the Na^+ -dependent uptake by the chimeric construct, SNST1c. […] Because of the sequence similarity to SGLT1, it was hypothesized that the transport would be Na^+ -dependent. Therefore, the uptake of ^22 Na^+ in the presence of potential substrates was monitored.
# (§3) Measurements were made of [^3 H] uridine uptake in oocytes expressing SNST1c (FIG. 4A and 4B). Uptakes were measured over 5 min in a buffer containing either 100 mM NaCl, choline chloride or LiCl as described by Coady et al., Arch. Biochem. Biophys. 283:130-134 (1990), incorporated by reference herein. [All of the solutions contained 2 mM KCL, 1 mM MgCl2, 1 mM CaCl2, 10 mM HEPES/Tris, pH 7.5 and either 100 mM NaCl (Na^+ transport buffer) or 100 mM choline-Cl (choline transport buffer). The uptake solutions contained radiolabeled substrate while the wash solutions contained nonradioactive substrate. Oocytes were injected with water as a control, or SNST1c cRNA (50 ng). Oocytes were preincubated for 30 min in substrate-free choline transport buffer when uptakes in Na^+ and choline were to be compared. Transport of substrate was assayed by placing 4-6 oocytes in 0.5 ml of radioactive uptake solution, preceded by a 30 min preincubation in a Na^+ -free (100 mM choline-Cl) solution when Na^+ -dependent transport was to be measured. Transport was stopped by washing the oocytes five times with 4 ml of ice-cold choline solution containing excess unlabeled substrate. The oocytes were individually dissolved in 1.0 ml of 10% SDS and assayed for radioactivity. All data are expressed as mean ±SD. FIG. 4A indicates cation dependence of 1 μM [^3 H]uridine uptake in oocytes expressing SNST1c 4 days post-injection. In addition, inhibition of 0.6 μM [^3 H] uridine uptake in oocytes by 1 mM nucleosides was determined (FIG. 4B). Uptakes were measured in Na^+ containing buffer (Coady et al., supra) Oocytes were injected with water as a control, or SNST1c cRNA (50 ng) .
# [2] = tested on: oocyte transporter (Na+/nucleoside cotransport in the oocyte membrane); assay: Inhibition of endogenous Na+/nucleoside cotransport in the oocyte membrane; type: cell-based, Xenopus laevis; settings: endogenous transport of the oocyte membrane
# Description: as §3, with “Transport was stopped by washing the oocytes five times with 4 ml of ice-cold choline solution containing excess unlabeled substrate.” left out, “FIG. 4A indicates cation dependence of 1 μM [^3 H]uridine uptake in oocytes expressing SNST1c 4 days post-injection. In addition, inhibition of 0.6 μM [^3 H] uridine uptake in oocytes by 1 mM nucleosides was determined (FIG. 4B).” left out
# [3] = tested on: SNST1c (chimeric Na+/nucleoside cotransporter SNST1); assay: Uptake of radiolabelled substrates in Xenopus oocytes expressing SNST1c; type: cell-based, rabbit; settings: oocytes printed as SGLT1c, n=6 oocytes
# [4] = tested on: Na+/glucose cotransporter SGLT1; settings: SGLT1-injected oocytes
# Description: Xenopus oocytes were dissected and injected, and transport was measured as described below. […] Briefly, oocytes were hand-dissected from ovarian tissue of adult female Xenopus laevis. […] Oocytes were maintained in Barth's solution at 18° C. After 16 to 24 hr, the healthy oocytes were injected with 50 nl of water or mRNA (0.2 to 1 mg/ml) and incubated in Barth's solution with gentamicin at 18° C. for another 3 to 8 days.
# [All of the solutions contained 2 mM KCL, 1 mM MgCl2, 1 mM CaCl2, 10 mM HEPES/Tris, pH 7.5 and either 100 mM NaCl (Na^+ transport buffer) or 100 mM choline-Cl (choline transport buffer). The uptake solutions contained radiolabeled substrate while the wash solutions contained nonradioactive substrate. Oocytes were injected with water as a control, or SNST1c cRNA (50 ng). […] Transport of substrate was assayed by placing 4-6 oocytes in 0.5 ml of radioactive uptake solution, preceded by a 30 min preincubation in a Na^+ -free (100 mM choline-Cl) solution when Na^+ -dependent transport was to be measured. […] The oocytes were individually dissolved in 1.0 ml of 10% SDS and assayed for radioactivity. All data are expressed as mean ±SD. […] Uptakes were measured in Na^+ containing buffer (Coady et al., supra) Oocytes were injected with water as a control, or SNST1c cRNA (50 ng) .
# [5] = tested on: SNST1c (chimeric Na+/nucleoside cotransporter SNST1); assay: 22Na+ uptake in the presence of potential substrates in oocytes expressing SNST1c; type: cell-based, rabbit; settings: SNST1c-injected oocytes
# Description: as §1, §2, §3
# [6] = tested on: Na+/glucose cotransporter protein; settings: cited from earlier work
# [7] = tested on: Na+/nucleoside cotransport in the kidney brush border; settings: Lee et al. 1990; cited from earlier work
# [8] = tested on: SNST1c (expressed Na+/nucleoside cotransporter); assay: Inhibition of [3H]uridine / radiolabeled nucleoside uptake in oocytes expressing SNST1c; type: cell-based, rabbit; settings: for inhibition of [3H]uridine transport by SNST1c: 1 mM nucleoside, 0.6 μM [3H]uridine, Na+ containing buffer (FIG. 4B)
# Description: as §3
# Uptake of radiolabeled nucleosides into Xenopus oocytes was measured in the presence or absence of Na^+ as described above in Example 1, and in the presence and absence of 1 mM phloridzin (Sigma, St. Louis, Mo.). […]
compound,measurement,setting,value
O=C(O)CCC(=O)O [succinate],transport of radiolabelled substrate by SNST1c,[1],none of these was transported
Nc1ccn([C@H]2CC[C@@H](CO)O2)c(=O)n1 [dideoxycytidine],inhibition of the oocyte Na+/nucleoside transporter,[2],did not inhibit
CC(O)C(=O)O (stereo not shown) [lactate],transport of radiolabelled substrate by SNST1c,[1],none of these was transported
"CO[C@H]1O[C@H](CO)[C@@H](O)[C@H](O)[C@H]1O [αMDG, α-methyl-D-glucopyranose]",14C-αMDG uptake,[3],0.5±0.1 pmol ^14 C-αMDG/oocyte/hr
same,14C-αMDG uptake,[4]; n=6 oocytes,70±19 pmol ^14 C-αMDG/oocyte/hr
same,transport of radiolabelled substrate by SNST1c,[1],none of these was transported
same,signal of 22Na+ uptake in the presence of potential substrate,[5],no signals
NCCS(=O)(=O)O [taurine],transport of radiolabelled substrate by SNST1c,[1],none of these was transported
C[C@H](CCC(=O)O)[C@H]1CC[C@H]2[C@@H]3[C@H](O)C[C@@H]4C[C@H](O)CC[C@]4(C)[C@H]3C[C@H](O)[C@]12C [cholate],signal of 22Na+ uptake in the presence of potential substrate,[5],no signals
O=C(CCc1ccc(O)cc1)c1c(O)cc(O)cc1O[C@@H]1O[C@H](CO)[C@@H](O)[C@H](O)[C@H]1O [Phloridzin],IC50,"[6]; mammalian intestine and kidney, competitive inhibition, read-out: concentration for fifty percent inhibition of sodium dependent sugar transport",5 µM
same,inhibition of Na+/nucleoside cotransport in the kidney brush border,[7],inhibits
same,inhibition of the expressed Na+/nucleoside cotransporter,"[8]; 1 mM phloridzin, n=2, Xenopus oocytes",87%
Cc1ncc(C[n+]2csc(CCO)c2C)c(N)n1 [thiamine],signal of 22Na+ uptake in the presence of potential substrate,[5],no signals
NCCCC[C@H](N)C(=O)O [lysine],transport of radiolabelled substrate by SNST1c,[1],none of these was transported
O=C(O)[C@@H]1CCCN1 [proline],transport of radiolabelled substrate by SNST1c,[1],none of these was transported
C[N+](C)(C)CC(=O)O [betaine],signal of 22Na+ uptake in the presence of potential substrate,[5],no signals
C[C@H](N)C(=O)O [alanine],transport of radiolabelled substrate by SNST1c,[1],none of these was transported
O=c1ccn([C@@H]2O[C@H](CO)[C@@H](O)[C@H]2O)c(=O)[nH]1 [uridine],3H-uridine uptake,[4]; n=5 oocytes,309±78 fmol ^3 H-uridine/oocyte/hr
same,3H-uridine uptake,"[1]; SNST1c-injected oocytes, n=5 oocytes",722±108 fmol ^3 H-uridine/oocyte/hr
same,transport of radiolabelled substrate by SNST1c,[1],transported
same,inhibition of [3H]uridine transport by SNST1c,[8],inhibited
O[C@H]1[C@H](O)[C@@H](O)[C@H](O)[C@@H](O)[C@H]1O [myoinositol],signal of 22Na+ uptake in the presence of potential substrate,[5],no signals
Nc1ccn([C@@H]2O[C@H](CO)[C@@H](O)[C@H]2O)c(=O)n1 [cytidine],inhibition of [3H]uridine transport by SNST1c,[8],inhibited
Nc1nc2c(ncn2[C@@H]2O[C@H](CO)[C@@H](O)[C@H]2O)c(=O)[nH]1 [guanosine],inhibition of [3H]uridine transport by SNST1c,[8],inhibited
Nc1ncnc2c1ncn2[C@@H]1O[C@H](CO)[C@@H](O)[C@H]1O [adenosine],inhibition of [3H]uridine transport by SNST1c,[8],inhibited
O=C(CCc1ccc(O)cc1)c1c(O)cc(O[C@@H]2O[C@H](CO)[C@@H](O)[C@H](O)[C@H]2O)cc1O [4' glycoside],activity as inhibitor of glucose transport,[6]; Diedrich 1990,inactive
CNC(C)(C)C(=O)O [methyl-aminoisobutyric acid],transport of radiolabelled substrate by SNST1c,[1],none of these was transported
N[C@@H](Cc1ccccc1)C(=O)O [phenylalanine],transport of radiolabelled substrate by SNST1c,[1],none of these was transported
O=c1ccn([C@H]2C[C@H](O)[C@@H](CO)O2)c(=O)[nH]1 [2-deoxyuridine],inhibition of [3H]uridine transport by SNST1c,[8],inhibited
3-O-methylglucose,transport of radiolabelled substrate by SNST1c,[1],none of these was transported
O=C(O)CCCC[C@@H]1SC[C@@H]2NC(=O)N[C@@H]21 [biotin],transport of radiolabelled substrate by SNST1c,[1],none of these was transported
